Data published in PubChem BioAssay AID463206 (Broad Institute, 2010).
Activity calls are given as the source filed them.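 How the source made its calls: active means caspase luminescence falls with dose and the half-maximal concentration AC50 from the fitted curve is at or below a set limit; inconclusive means flat fit at 30 to 70% signal loss, or invalid fit; inactive means AC50 above the limit, or signal rises instead.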

What follows are molecules tested on INS-1E cytokine-induced caspase-3/7, Caspase-Glo luminescence, 48 h (assay: inhibitors of cytokine-induced caspase-3/7 activity, dose response, orthogonal assay for beta-cell apoptosis protection project, INS-1E rat cells, luminescence (AID 463206)).

| SMILES | AC50 |
| --- | --- |
| CCCNC1=C(N(C(C)=O)c2cccc(F)c2)C(=O)c2ccccc2C1=O | > 26 µM (inactive) |
| CC1=CC(=O)C(C(C)C)=C/C1=N/OS(=O)(=O)c1ccccc1 | > 26 µM (inactive) |
| Cc1c(/C=N/Nc2nc3ccccc3[nH]2)c2ccccc2n1C | > 26 µM (inactive) |
| Cn1cccc1/C=N/NC(=O)Cc1cccs1 | > 26 µM (inactive) |
| C(=N\Nc1nncc2ccccc12)/c1ccccn1 | > 26 µM (inactive) |
| CCOC(=O)/C(=C\c1ccc([N+](=O)[O-])cc1)C(=O)c1cc(C(C)=O)c(Nc2ccccc2)s1 | > 26 µM (inactive) |
| COc1ccc(C(=O)c2c(C(F)(F)F)oc3c2C(=O)c2ccccc2C3=O)cc1 | > 26 µM (inactive) |
| COc1ccccc1OCCCCOc1ccccc1C(C)=O | > 26 µM (inactive) |
| Cc1cccc(/C=N\NC(=O)c2ccc(Cl)cc2)c1O | > 26 µM (inactive) |
| CCN(CC)S(=O)(=O)c1cc(OC)ccc1N=Nc1ccc(O)c2ncccc12 | > 26 µM (inactive) |
| Cc1[nH]c2c(ccc3ccccc32)c1C1C(CCN)C1(C)C (stereo unspecified) | > 26 µM (inactive) |
| CC(C)(C)C1C/C(=C/c2ccccn2)C(=O)/C(=C/c2ccccn2)C1 (stereo unspecified) | > 26 µM (inactive) |
| Cc1cc(C)n(-c2nc(NCCCO)c3c4c(sc3n2)CCCC4)n1 | > 26 µM (inactive) |
| CCOc1ccc(OCc2ccc(C(=O)NN=Cc3ccc[nH]3)cc2)cc1 | > 26 µM (inactive) |
| Cc1ccc([N+](=O)[O-])cc1N(CC(=O)Nc1ccc(S(=O)(=O)Nc2cccc(C(F)(F)F)c2)cc1)S(C)(=O)=O | > 26 µM (inactive) |
| Cc1ccc(-c2cc(-c3ccc(C)cc3)[n+](-c3ccccc3)c(-c3ccc(C)cc3)c2)cc1 | > 26 µM (inactive) |
| Cn1nccc1C(=O)NC1CCCc2c1cnn2-c1ccccc1F (stereo unspecified) | > 26 µM (inactive) |
| CCc1c(C2(O)CCCCC2)[nH]c2cc(C(F)(F)F)ccc12 | > 26 µM (inactive) |
| CCc1cc(CNC(=O)c2ccc3nc(Cc4ccc(OC)c(OC)c4)oc3c2)on1 | > 26 µM (inactive) |
| Cc1ccc(NC(=S)N/N=C/c2ccc([N+](=O)[O-])s2)cc1 | > 26 µM (inactive) |
| CCN(CC)c1ccc(N=C2C(=O)Nc3ccccc32)cc1 | > 26 µM (inactive) |
| Cc1ccc(NC(=O)Cc2nn(C)c(=O)c3ccccc23)cc1F | > 26 µM (inactive) |
| CC(C)CCCCCCNC(=S)Nc1ccc(S(=O)(=O)N2CCOCC2)cc1 | > 26 µM (inactive) |

| SMILES | AC50 |
| --- | --- |
| N#CCSc1nc2ccccc2c2nc3ccccc3n12 | > 26 µM (inactive) |
| CCOC(=O)c1cnc(-n2nc(C)cc2C)nc1NC1CCCC1 | > 26 µM (inactive) |
| COc1ccc(C2/C=C\CN(C(=O)c3ccc(C)cc3)[C@H](Cc3ccccc3)C(=O)N2Cc2ccc(F)cc2)cc1 (stereo partly specified) | > 26 µM (inactive) |
| CC(C)(C)c1ccc(C(O)CCCN2CCC(C(O)(c3ccccc3)c3ccccc3)CC2)cc1 (stereo unspecified) | > 26 µM (inactive) |
| COc1ccc2c(c1)[nH]c1c(N3CCN(Cc4ccc5c(c4)OCO5)CC3)ncnc12 | > 26 µM (inactive) |
| C/C(=N\NC(=O)c1ccc(F)cc1)c1ccccn1 | > 26 µM (inactive) |
| CCC(=O)NC(c1ccc(OC)cc1)c1cc(Cl)c2cccnc2c1O (stereo unspecified) | > 26 µM (inactive) |
| CN(Cc1ccccc1)C(=O)c1nc2ccccn2c1CN1CCCC1c1nccs1 (stereo unspecified) | > 26 µM (inactive) |
| CCOC(=O)N1CCN(C(=O)CSCC(=O)Nc2nc(-c3ccc(-c4ccccc4)cc3)cs2)CC1 | > 26 µM (inactive) |
| O=S(=O)(Nc1nc2ccccc2s1)c1ccc(Cl)s1 | > 26 µM (inactive) |
| O=C1c2ccc3c4c(ccc(c24)C(=O)N1c1cccc(O)c1)C(=O)N(c1cccc(O)c1)C3=O | > 26 µM (inactive) |
| CC1CCCCC1NS(=O)(=O)c1ccc(S(=O)(=O)NCc2ccncc2)cc1 (stereo unspecified) | > 26 µM (inactive) |
| C=CCCc1ccc(C#N)c(SCc2c(C(=O)OCC)c3cc(OC(C)=O)c(Br)cc3n2C)n1 | > 26 µM (inactive) |
| Oc1[nH]c2ccccc2c1N=NC(=S)N1CCOCC1 | > 26 µM (inactive) |
| CC(C)(C)n1ncc2c(=O)n(Cc3cccc(Cn4cnc5c(cnn5C(C)(C)C)c4=O)c3F)cnc21 | > 26 µM (inactive) |
| CCCOC(=O)c1ccc(-[n+]2c(-c3ccccc3)cc(-c3ccccc3)cc2-c2ccccc2)cc1 | > 26 µM (inactive) |
| Brc1ccccc1CN1CCN(Cc2c[nH]c3ccccc23)CC1 | > 26 µM (inactive) |
| CC[C@H](C)[C@@H](C(=O)NCCCCCCCCCCC(=O)N1CCN(C(=O)OC(C)(C)C)CC1)n1cc(CCCCCNC(=O)OC(C)(C)C)nn1 | > 26 µM (inactive) |
| O=C(N=Nc1c(O)n(Cc2ccccc2)c2ccccc12)c1cc2ccccc2cc1O | > 26 µM (inactive) |
| C=C1C(=O)O[C@@H]2C[C@@H](C)[C@@H]3C=CC(=O)[C@@]3(C)[C@@H](OC(=O)CC(=O)O[C@H]3[C@@H]4C(=C)C(=O)O[C@@H]4C[C@@H](C)[C@@H]4C=CC(=O)[C@]43C)[C@H]12 | > 26 µM (inactive) |
| COc1ccc(OC)c(NC(=O)CSc2ncnc3c2cnn3-c2ccccc2Cl)c1 | > 26 µM (inactive) |
| c1ccc(-[n+]2nc(Nc3cccc4ccccc34)sc2-c2c3ccccc3cc3ccccc23)cc1 | > 26 µM (inactive) |
| COc1ccc(CC2(CO)CCN(CC3=Cc4cc(Cl)ccc4OC3)CC2)cc1 | > 26 µM (inactive) |

| SMILES | AC50 |
| --- | --- |
| COc1ccc(-c2nc3ccc(C)cn3c2NCc2ccccc2)cc1SC1CCCCC1 | > 26 µM (inactive) |
| COc1ccc(CC(=O)Nc2ccncc2Cl)cc1 | > 26 µM (inactive) |
| Cc1ccccc1OCC(O)CNC1CCC(NCC(O)COc2ccccc2C)CC1 (stereo unspecified) | > 26 µM (inactive) |
| COc1cccc(C(=O)Oc2c(Br)cc(Br)cc2/C=N/NC(=O)c2cc(C)[nH]n2)c1 | > 26 µM (inactive) |
| COCCC1CCCCN1C(=O)c1cc(COc2ccc(-n3cncn3)cc2)on1 (stereo unspecified) | > 26 µM (inactive) |
| Cc1cccc(C)c1NC(=O)CNC(=O)c1c(C)nn(C)c1Cl | > 26 µM (inactive) |
| Oc1c(CN2CCOCC2)cc(COCc2ccccc2)c2cccnc12 | > 26 µM (inactive) |
| COc1cccc(/C=N/NC(=O)CN2CC(c3ccccc3)CC2=O)c1O (stereo unspecified) | > 26 µM (inactive) |
| CCCC(=O)NC(c1ccccc1OC)c1ccc2cccnc2c1O (stereo unspecified) | > 26 µM (inactive) |
| S=C(NCc1ccc(Cl)cc1)NC12CC3CC(CC(C3)C1)C2 | > 26 µM (inactive) |
| C/C(=N\NC(=O)c1nnn(-c2nonc2N)c1CN(C)c1ccccc1)c1ccccc1O | > 26 µM (inactive) |
| Cc1ccc([N+](=O)[O-])c(OCCN2CCCCCC2)c1 | > 26 µM (inactive) |
| O=C(NNc1ccccc1Br)C(O)(c1cccc(C(F)(F)F)c1)c1cccc(C(F)(F)F)c1 | > 26 µM (inactive) |
| CCN(CC)c1ccc(/C=N/N(c2ccccc2)c2ccccc2)c(O)c1 | > 26 µM (inactive) |
| O=C(CC1CC2CCC1C2)NCCc1ccc(Cl)cc1 (stereo unspecified) | > 26 µM (inactive) |
| O=C(NNC(=O)c1ccccc1OCc1ccccc1)c1ccccc1O | > 26 µM (inactive) |
| COc1cc2sc(-c3ccccc3OC)c(-c3ccc(OCCN4CCCCC4)cc3)c2cc1OC | 16 µM |
| COc1cccc(/C=N/NC(=O)c2ccc(-c3ccccc3)cc2)c1O | > 26 µM (inactive) |
| CC(C)(C)c1cc(NCCCn2ccnc2)n2ncc(-c3ccccc3)c2n1 | > 26 µM (inactive) |
| CCOC(=O)/C(=C\c1ccc(OC(F)F)cc1)C1=Nn2c(nnc2-c2ccc(Cl)cc2)SC1 | > 26 µM (inactive) |
| CC1=NNC(=O)/C1=C\c1cn(-c2ccccc2)nc1-c1cccs1 | > 26 µM (inactive) |
| COc1ccccc1NC(=O)Cn1cc(C(=O)c2ccco2)c2ccccc21 | > 26 µM (inactive) |
| O=C1C(Cl)=C(NCc2cccnc2)C(=O)c2ccccc21 | > 26 µM (inactive) |

| SMILES | AC50 |
| --- | --- |
| CC[C@]1(c2ccccc2OC)ON(c2ccccc2C(F)(F)F)C1=O | > 26 µM (inactive) |
| COc1ccc2c(c1)N(C)/C(=C/c1cccc[n+]1C)S2 | > 26 µM (inactive) |
| Cc1[nH]c2ccccc2c1CN1CCC(Cc2ccccc2)CC1 | > 26 µM (inactive) |
| COC(=O)C1=C(C)N(Cc2ccccc2)C(=NCc2cccc(C(F)(F)F)c2)N[C@H]1c1cccc(F)c1 | > 26 µM (inactive) |
| CCCCCCCCCCOC(=O)Cn1c(COc2ccc(OC)cc2)[n+](C)c2ccccc21 | > 26 µM (inactive) |
| N#CC1=C(N)Oc2c(ccc3cccnc23)C1c1cccnc1 (stereo unspecified) | > 26 µM (inactive) |
| COc1cccc(/C=N/NC(=O)c2cc3c(OC)ccc(OC)c3[nH]2)c1O | > 26 µM (inactive) |
| Cc1cccc2sc(NNC(=O)c3ccc(S(=O)(=O)N4CCc5ccccc5C4)cc3)nc12 | > 26 µM (inactive) |
| COc1ccccc1/C=N\Nc1cc(C)nc(-n2nc(C)cc2C)n1 | > 26 µM (inactive) |
| Cc1ccc(C2CC(c3cccc(Br)c3)n3nc(N)nc3N2)cc1 (stereo unspecified) | > 26 µM (inactive) |
| Clc1ccccc1Nc1nnc(-c2ccncc2)s1 | > 26 µM (inactive) |
| O=C(NC1(Cc2ccccc2)CCN(CCCc2ccccc2)C1=O)c1ccccc1 (stereo unspecified) | > 26 µM (inactive) |
| COC(=O)c1nc(-c2ccc3c(n2)C(=O)C(N)=C(OC)C3=O)c(N)c(-c2ccc(OC)c(OC)c2O)c1C | > 26 µM (inactive) |
| C/C(=N/NC(=O)c1ccc(C(C)(C)C)cc1)c1ccccn1 | > 26 µM (inactive) |
| CC1CCC(C(C)C)C(OC(=O)C[n+]2cc(-c3ccc(Cl)cc3)n3c2CCCCC3)C1 (stereo unspecified) | > 26 µM (inactive) |
| O=C(Oc1c(CN2CCOCC2)cc(Cl)c2cccnc12)c1ccc(F)cc1 | > 26 µM (inactive) |
| S=C(NCCCN1CCOCC1)N1CCN(c2nc(-c3ccc(Cl)cc3)cs2)CC1 | > 12 µM (inactive) |
| O=C(N/N=C\c1ccc([N+](=O)[O-])s1)c1cncc(Br)c1 | > 26 µM (inactive) |
| O=[N+]([O-])c1ccc(/C=N/n2c(CO)nc3ccccc32)s1 | > 26 µM (inactive) |
| C#CCOCCOCCOCCNc1nc(N2CCN(C(=O)CCCCCCCCCCNC(=O)Cn3cc(CCCCCN)nn3)CC2)nc(N2CCN(C(=O)CCCCCCCCCCNC(=O)[C@H]([C@@H](C)CC)n3cc(CCCCN=C(N)N)nn3)CC2)n1 | > 26 µM (inactive) |
| COc1ccc(/C=N/Nc2cc(C)nc(-n3nc(C)cc3C)n2)cc1 | > 26 µM (inactive) |
| CCN(CC)S(=O)(=O)c1ccc(NC(=O)Nc2cccc(C(F)(F)F)c2)cc1 | > 26 µM (inactive) |
